According to patent US20230085307A1, “PYRIDAZINONE COMPOUND AND HERBICIDE” (NISSAN CHEMICAL CORPORATION, priority 2019, published 2023):

What follows are compounds tested on barnyard grass (assay: Test Example 4: herbicidal effect by soil treatment (Table 19, symbol H)). Conditions: amount of applied herbicide 320 g/ha.
Format: in vivo, barnyard grass (Echinochloa crus-galli)
Method in brief: (§1)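 Herbicidal effect was rated 3 weeks after treatment, using the scoring criteria of an earlier test. The compound, formulated as an emulsion and diluted in water to a set herbicide amount, had been sprayed uniformly on soil over freshly sown seeds. Growth took place in a greenhouse at 25° C. to 30° C.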
With `CCOc1ccc2c(-c3c(O)c(C)nn(C)c3=O)c(-c3ccccc3OC)sc2c1` [3-089] the “H: barnyard grass, herbicidal effect grade” value was 4 (Herbicidal rate of 70% or more and less than 90%). For `CCOc1ccc2c(-c3c(O)c(C)nn(C)c3=O)c(-c3ccccc3OCC)sc2c1` [3-093], the “H: barnyard grass, herbicidal effect grade” value was 4 (Herbicidal rate of 70% or more and less than 90%).

These compounds were tested on windgrass (assay: Test Example 5: herbicidal effect by foliage application, plastic box (Table 20, symbol L)). Conditions: foliage application, 320 g/ha, three weeks after application.
Format: in vivo, windgrass (Apera spica-venti)
Method in brief: (§2)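 Foliar spray test: emulsion formulation diluted in water to a set application rate, sprayed onto 14-day-old plants raised in diluvial soil at 25° C to 30° C under glass. Both herbicidal effect and crop effect rated visually three weeks later.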
With `CCOc1ccc2c(-c3c(O)c(C)nn(C)c3=O)c(-c3ccccc3OC)sc2c1` [3-089] the “L: windgrass, herbicidal effect grade” value was 5 (Herbicidal rate of 90% or more (almost completely withered)). For `CCOc1ccc2c(-c3c(O)c(C)nn(C)c3=O)c(-c3ccccc3OCC)sc2c1` [3-093], the “L: windgrass, herbicidal effect grade” value was 5 (Herbicidal rate of 90% or more (almost completely withered)).

These compounds were tested on Japanese bulrush (assay: Test Example 1: herbicidal activity, application before weed generation under submerged conditions (Table 16, symbol B)). Conditions: amount of applied herbicide 320 g/ha.
Format: in vivo, Japanese bulrush (Schoenoplectus juncoides)
Method in brief: (§3)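 Submerged Wagner pots (alluvial soil, 4 cm water) sown with weed seeds and planted with 2.5-leaf rice seedlings; emulsifiable concentrate diluted in water applied to water surface on sowing day. Held in greenhouse at 25-30 °C; injury scored 0-5 by herbicidal rate after three weeks.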
In the case of `CCOc1ccc2c(-c3c(O)c(C)nn(C)c3=O)c(-c3ccccc3OC)sc2c1` [3-089], the “Herbicidal effect, B: Japanese bulrush” value is reported as 5 (Herbicidal rate of 90% or more (almost completely withered)). `CCOc1ccc2c(-c3c(O)c(C)nn(C)c3=O)c(-c3ccccc3OCC)sc2c1` [3-093] was tested, and the “Herbicidal effect, B: Japanese bulrush” value was 5 (Herbicidal rate of 90% or more (almost completely withered)).

What follows are compounds tested on late watergrass (assay: Test Example 1: herbicidal activity, application before weed generation under submerged conditions (Table 16, symbol A)). Conditions: amount of applied herbicide 320 g/ha.
Format: in vivo, late watergrass (Echinochloa oryzicola)
Method in brief: as §3
With `CCOc1ccc2c(-c3c(O)c(C)nn(C)c3=O)c(-c3ccccc3OC)sc2c1` [3-089] the “Herbicidal effect, A: late watergrass” value was 5 (Herbicidal rate of 90% or more (almost completely withered)). `CCOc1ccc2c(-c3c(O)c(C)nn(C)c3=O)c(-c3ccccc3OCC)sc2c1` [3-093] was tested, and the “Herbicidal effect, A: late watergrass” value was 5 (Herbicidal rate of 90% or more (almost completely withered)).

These compounds were tested on blackgrass (assay: Test Example 4: herbicidal effect by soil treatment (Table 19, symbol J)). Conditions: amount of applied herbicide 320 g/ha.
Format: in vivo, blackgrass (Alopecurus myosuroides)
Method in brief: as §1
In the case of `CCOc1ccc2c(-c3c(O)c(C)nn(C)c3=O)c(-c3ccccc3OC)sc2c1` [3-089], the “J: blackgrass, herbicidal effect grade” value is reported as 4 (Herbicidal rate of 70% or more and less than 90%). With `CCOc1ccc2c(-c3c(O)c(C)nn(C)c3=O)c(-c3ccccc3OCC)sc2c1` [3-093] the “J: blackgrass, herbicidal effect grade” value was 3 (Herbicidal rate of 40% or more and less than 70%).

Each compound was assayed on green foxtail (assay: Test Example 5: herbicidal effect by foliage application, plastic box (Table 20, symbol G)). Conditions: foliage application, 320 g/ha, three weeks after application.
Format: in vivo, green foxtail (Setaria viridis)
Method in brief: as §2
For `CCOc1ccc2c(-c3c(O)c(C)nn(C)c3=O)c(-c3ccccc3OC)sc2c1` [3-089], the “G: green foxtail, herbicidal effect grade” value was 4 (Herbicidal rate of 70% or more and less than 90%). For `CCOc1ccc2c(-c3c(O)c(C)nn(C)c3=O)c(-c3ccccc3OCC)sc2c1` [3-093], the “G: green foxtail, herbicidal effect grade” value was 5 (Herbicidal rate of 90% or more (almost completely withered)).

The compounds below were run on lambsquarters (assay: Test Example 5: herbicidal effect by foliage application, plastic box (Table 20, symbol O)). Conditions: foliage application, 320 g/ha, three weeks after application.
Format: in vivo, lambsquarters (Chenopodium album)
Method in brief: as §2
`CCOc1ccc2c(-c3c(O)c(C)nn(C)c3=O)c(-c3ccccc3OC)sc2c1` [3-089] was tested, and the “O: lambsquarters, herbicidal effect grade” value was 4 (Herbicidal rate of 70% or more and less than 90%). In the case of `CCOc1ccc2c(-c3c(O)c(C)nn(C)c3=O)c(-c3ccccc3OCC)sc2c1` [3-093], the “O: lambsquarters, herbicidal effect grade” value is reported as 5 (Herbicidal rate of 90% or more (almost completely withered)).

The compounds below were run on wild oat (assay: Test Example 5: herbicidal effect by foliage application, plastic box (Table 20, symbol I)). Conditions: foliage application, 320 g/ha, three weeks after application.
Format: in vivo, wild oat (Avena fatua)
Method in brief: as §2
`CCOc1ccc2c(-c3c(O)c(C)nn(C)c3=O)c(-c3ccccc3OC)sc2c1` [3-089] was tested, and the “I: wild oat, herbicidal effect grade” value was 3 (Herbicidal rate of 40% or more and less than 70%). `CCOc1ccc2c(-c3c(O)c(C)nn(C)c3=O)c(-c3ccccc3OCC)sc2c1` [3-093] was tested, and the “I: wild oat, herbicidal effect grade” value was 4 (Herbicidal rate of 70% or more and less than 90%).

Each compound was assayed on persian speedwell (assay: Test Example 5: herbicidal effect by foliage application, plastic box (Table 20, symbol R)). Conditions: foliage application, 320 g/ha, three weeks after application.
Format: in vivo, Persian speedwell (Veronica persica)
Method in brief: as §2
`CCOc1ccc2c(-c3c(O)c(C)nn(C)c3=O)c(-c3ccccc3OC)sc2c1` [3-089] was tested, and the “R: persian speedwell, herbicidal effect grade” value was 5 (Herbicidal rate of 90% or more (almost completely withered)). In the case of `CCOc1ccc2c(-c3c(O)c(C)nn(C)c3=O)c(-c3ccccc3OCC)sc2c1` [3-093], the “R: persian speedwell, herbicidal effect grade” value is reported as 5 (Herbicidal rate of 90% or more (almost completely withered)).

What follows are compounds tested on chickweed (assay: Test Example 4: herbicidal effect by soil treatment (Table 19, symbol P)). Conditions: amount of applied herbicide 320 g/ha.
Format: in vivo, common chickweed (Stellaria media)
Method in brief: as §1
In the case of `CCOc1ccc2c(-c3c(O)c(C)nn(C)c3=O)c(-c3ccccc3OC)sc2c1` [3-089], the “P: chickweed, herbicidal effect grade” value is reported as 4 (Herbicidal rate of 70% or more and less than 90%). In the case of `CCOc1ccc2c(-c3c(O)c(C)nn(C)c3=O)c(-c3ccccc3OCC)sc2c1` [3-093], the “P: chickweed, herbicidal effect grade” value is reported as 4 (Herbicidal rate of 70% or more and less than 90%).

These compounds were tested on barnyard grass (assay: Test Example 3: herbicidal effect by foliage application, Wagner pot (Table 18, symbol H)). Conditions: 320 g/ha.
Format: in vivo, barnyard grass (Echinochloa crus-galli)
Method in brief: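 Plants were sown in alluvial soil held under 0.1–0.5 cm standing water and grown 14 days in a greenhouse at 25–30 °C. An emulsifiable formulation, water-diluted to the set dose, was then sprayed onto the foliage, and effects were scored three weeks later using previously defined criteria.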
In the case of `CCOc1ccc2c(-c3c(O)c(C)nn(C)c3=O)c(-c3ccccc3OC)sc2c1` [3-089], the “herbicidal effect on barnyard grass (H)” value is reported as 5 (Herbicidal rate of 90% or more (almost completely withered)). For `CCOc1ccc2c(-c3c(O)c(C)nn(C)c3=O)c(-c3ccccc3OCC)sc2c1` [3-093], the “herbicidal effect on barnyard grass (H)” value was 5 (Herbicidal rate of 90% or more (almost completely withered)).

These compounds were tested on oval-leafed pondweed (assay: Test Example 2: herbicidal activity, application during weed generation under submerged conditions (Table 17, symbol C)). Conditions: AAH 320 g/ha; application during weed generation, submerged conditions.
Format: in vivo, oval-leafed pondweed (Monochoria vaginalis)
Method in brief: (§4)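 Herbicide emulsion, diluted with water to the chosen amount, is applied onto 4 cm floodwater over alluvial soil where the weeds were co-sown and raised at 25–30° C. Application timing: 1–2 leaves. Assessment: three weeks afterwards.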
With `CCOc1ccc2c(-c3c(O)c(C)nn(C)c3=O)c(-c3ccccc3OC)sc2c1` [3-089] the “herbicidal effect rating, C: oval-leafed pondweed” value was 5 (Herbicidal rate of 90% or more (almost completely withered)). `CCOc1ccc2c(-c3c(O)c(C)nn(C)c3=O)c(-c3ccccc3OCC)sc2c1` [3-093] was tested, and the “herbicidal effect rating, C: oval-leafed pondweed” value was 5 (Herbicidal rate of 90% or more (almost completely withered)).

The compounds below were run on redroot pigweed (assay: Test Example 5: herbicidal effect by foliage application, plastic box (Table 20, symbol N)). Conditions: foliage application, 320 g/ha, three weeks after application.
Format: in vivo, redroot pigweed (Amaranthus retroflexus)
Method in brief: as §2
In the case of `CCOc1ccc2c(-c3c(O)c(C)nn(C)c3=O)c(-c3ccccc3OC)sc2c1` [3-089], the “N: redroot pigweed, herbicidal effect grade” value is reported as 5 (Herbicidal rate of 90% or more (almost completely withered)). `CCOc1ccc2c(-c3c(O)c(C)nn(C)c3=O)c(-c3ccccc3OCC)sc2c1` [3-093] was tested, and the “N: redroot pigweed, herbicidal effect grade” value was 5 (Herbicidal rate of 90% or more (almost completely withered)).

What follows are compounds tested on southern crabgrass (assay: Test Example 4: herbicidal effect by soil treatment (Table 19, symbol F)). Conditions: amount of applied herbicide 320 g/ha.
Format: in vivo, southern crabgrass (Digitaria ciliaris)
Method in brief: as §1
With `CCOc1ccc2c(-c3c(O)c(C)nn(C)c3=O)c(-c3ccccc3OC)sc2c1` [3-089] the “F: southern crabgrass, herbicidal effect grade” value (shortened to “F: southern crabgrass”) was 5 (Herbicidal rate of 90% or more (almost completely withered)). For `CCOc1ccc2c(-c3c(O)c(C)nn(C)c3=O)c(-c3ccccc3OCC)sc2c1` [3-093], the “F: southern crabgrass” value was 5 (Herbicidal rate of 90% or more (almost completely withered)).

Each compound was assayed on southern crabgrass (assay: Test Example 5: herbicidal effect by foliage application, plastic box (Table 20, symbol F)). Conditions: foliage application, 320 g/ha, three weeks after application.
Format: in vivo, southern crabgrass (Digitaria ciliaris)
Method in brief: as §2
For `CCOc1ccc2c(-c3c(O)c(C)nn(C)c3=O)c(-c3ccccc3OC)sc2c1` [3-089], the “F: southern crabgrass” value was 4 (Herbicidal rate of 70% or more and less than 90%). `CCOc1ccc2c(-c3c(O)c(C)nn(C)c3=O)c(-c3ccccc3OCC)sc2c1` [3-093] was tested, and the “F: southern crabgrass” value was 5 (Herbicidal rate of 90% or more (almost completely withered)).

What follows are compounds tested on late watergrass (assay: Test Example 2: herbicidal activity, application during weed generation under submerged conditions (Table 17, symbol A)). Conditions: AAH 320 g/ha; application during weed generation, submerged conditions.
Format: in vivo, late watergrass (Echinochloa oryzicola)
Method in brief: as §4
For `CCOc1ccc2c(-c3c(O)c(C)nn(C)c3=O)c(-c3ccccc3OC)sc2c1` [3-089], the “herbicidal effect rating, A: late watergrass” value was 4 (Herbicidal rate of 70% or more and less than 90%). For `CCOc1ccc2c(-c3c(O)c(C)nn(C)c3=O)c(-c3ccccc3OCC)sc2c1` [3-093], the “herbicidal effect rating, A: late watergrass” value was 3 (Herbicidal rate of 40% or more and less than 70%).

These compounds were tested on false cleavers (assay: Test Example 4: herbicidal effect by soil treatment (Table 19, symbol Q)). Conditions: amount of applied herbicide 320 g/ha.
Format: in vivo, false cleavers (Galium spurium)
Method in brief: as §1
In the case of `CCOc1ccc2c(-c3c(O)c(C)nn(C)c3=O)c(-c3ccccc3OC)sc2c1` [3-089], the “Q: false cleavers, herbicidal effect grade” value is reported as 5 (Herbicidal rate of 90% or more (almost completely withered)). With `CCOc1ccc2c(-c3c(O)c(C)nn(C)c3=O)c(-c3ccccc3OCC)sc2c1` [3-093] the “Q: false cleavers, herbicidal effect grade” value was 3 (Herbicidal rate of 40% or more and less than 70%).
